Source: patent publication US20200247815A1, “PYRAZOLYL-CONTAINING TRICYCLIC DERIVATIVE, PREPARATION METHOD THEREFOR AND USE THEREOF” (Jiangsu Hansoh Pharmaceutical Group Co., Ltd., priority 2017, published 2020)

Columns and labels:
hERG potassium channel = target: T1, hERG potassium channel (Homo sapiens, UniProt Q12809); assay: hERG potassium channel inhibition activity test (Qpatch, CHO-hERG cells); assay type: cell-based
T1 construct: expressed in transfected cells; host or cells: CHO-hERG cells
T1 sequence (Q12809 whole entry): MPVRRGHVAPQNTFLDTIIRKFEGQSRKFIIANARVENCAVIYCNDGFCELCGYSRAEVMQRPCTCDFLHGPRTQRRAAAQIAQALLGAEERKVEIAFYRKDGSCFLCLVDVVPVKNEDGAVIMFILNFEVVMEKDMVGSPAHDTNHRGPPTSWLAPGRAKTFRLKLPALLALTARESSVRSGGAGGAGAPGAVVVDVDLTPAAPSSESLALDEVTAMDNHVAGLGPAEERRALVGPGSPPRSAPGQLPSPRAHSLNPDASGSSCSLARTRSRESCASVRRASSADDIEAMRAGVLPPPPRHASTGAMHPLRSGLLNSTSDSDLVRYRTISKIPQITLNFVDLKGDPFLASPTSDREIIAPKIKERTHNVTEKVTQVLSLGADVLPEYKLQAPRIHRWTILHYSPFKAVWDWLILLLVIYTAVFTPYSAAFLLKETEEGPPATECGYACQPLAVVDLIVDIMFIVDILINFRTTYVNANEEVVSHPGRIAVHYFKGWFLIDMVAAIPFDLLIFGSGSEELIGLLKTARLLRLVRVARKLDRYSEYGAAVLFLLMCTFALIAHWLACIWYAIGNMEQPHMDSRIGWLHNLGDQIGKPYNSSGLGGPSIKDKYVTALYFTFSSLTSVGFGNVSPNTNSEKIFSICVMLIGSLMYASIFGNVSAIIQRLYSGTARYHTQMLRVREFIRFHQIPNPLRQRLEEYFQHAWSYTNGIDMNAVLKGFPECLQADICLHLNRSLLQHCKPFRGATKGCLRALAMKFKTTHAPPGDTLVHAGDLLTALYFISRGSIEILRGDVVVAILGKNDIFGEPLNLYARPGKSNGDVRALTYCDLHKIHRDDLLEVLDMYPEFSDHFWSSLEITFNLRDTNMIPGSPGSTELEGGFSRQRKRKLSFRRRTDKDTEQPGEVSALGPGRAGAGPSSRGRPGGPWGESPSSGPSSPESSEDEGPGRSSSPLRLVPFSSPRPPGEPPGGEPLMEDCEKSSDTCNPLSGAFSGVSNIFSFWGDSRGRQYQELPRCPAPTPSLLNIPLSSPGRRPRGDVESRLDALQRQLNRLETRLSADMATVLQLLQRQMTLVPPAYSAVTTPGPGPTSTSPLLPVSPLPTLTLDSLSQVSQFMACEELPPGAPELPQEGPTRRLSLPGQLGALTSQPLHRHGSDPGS
Description: 4.1.1 CHO-hERG cells were cultured in a 175 cm2 culture flask. After the cell density reached 60˜80%, the culture solution was removed. The cells were washed with 7 mL of PBS once, and dissociated with 3 mL of Detachin.
4.1.2 After completion of dissociation, the cells were neutralized with 7 mL of culture solution. The solution was centrifuged, and the supernate was removed. The cells were resuspended in 5 mL of culture solution. The cell indensity is ensured as […].
Single cell sealing impedance and formation of whole-cell mode were automatically performed by Qpatch instrument. After obtaining the whole-cell recording mode, the cell was clamped at −80 mV. The cell first underwent pre-voltage of −50 mV for 50 msec, then underwent depolarization stimulation at +40 mV for 5 sec, and then underwent repolarization at −50 mV for 5 sec. and then the voltage returned to −80 mV. The cell underwent the stimulation at the voltage every 15 sec, and the data were recorded for 2 min, then extracellular fluid was administrated, and then the data were recorded for 5 min. Then, the administration process begun. The concentration of the test compound started from the lowest concentration, each test concentration was administrated for 2.5 min. At least three cells were tested for each concentration.
4.4.1 20 mM mother liquor of the compound was diluted with extracellular fluid, 5 uL of 20 mM mother liquor of the compound was added with 2495 uL of extracellular fluid to obtain a concentration of 40 uM (500-fold dilution). The solution was subjected to a 3-fold serial dilution with extracellular fluid containing 0.2% DMSO to obtain a required final concentration.
This concentration of DMSO had no effect on hERG potassium channel.
The experimental data was analyzed by XLFit software.

[1] = test system: pancreatic cancer tumor cell Mia Paca 2; assay: Inhibition of tumor cell proliferation (CellTiter-Glo); assay type: cell-based; conditions: Homo sapiens, Miapaca-2 cell, 3-7 days
Description: The object of this test example is to determine the inhibition effect of the present compound on tumor cell proliferation activity. The inhibition activity of the compound on tumor cell proliferation was determined by CellTiter-Glo method, and the half inhibitory concentration IC50 of the compound for inhibiting cell proliferation activity was obtained, 50-100 μL of tumor cell suspension was inoculated in a 96-well cell culture plate with a density of 1˜5*10^4 cells/ml. The plate was incubated in an incubator for 16˜24 hours (37° C., 5% CO2). Solutions of test compounds at different concentrations obtained by gradient dilution were added to the cells in the plate. The plate was incubated in an incubator for 3-7 days (37° C., 5% CO2), 50˜100 μL of CellTiter-Glo reagent was added to each well. The plate was shaked for 10 minutes, and left to stand at room temperature for 10 minutes. The value of the chemiluminescence signal was determined by a microplate reader. The inhibition rate was calculated from the value of the chemiluminescence signal. IC50 of the compound was obtained by curve fitting based on the inhibition rate at different concentrations.
The inhibition effect of the present compound on pancreatic cancer tumor cell Mia Paca 2 proliferation activity was determined by the test, and the obtained IC50 value is shown in Table 2.

ERK-1 kinase = target: T2, ERK-1 kinase (Homo sapiens, UniProt P27361); assay: Inhibition of ERK-1 kinase activity (LANCE Ultra TR-FRET); assay type: biochemical; conditions: ERK1 enzyme 0.4 nM, ATP 38.15 μM
T2 construct: purchased Invitrogen PV3311
T2 sequence (P27361 whole entry): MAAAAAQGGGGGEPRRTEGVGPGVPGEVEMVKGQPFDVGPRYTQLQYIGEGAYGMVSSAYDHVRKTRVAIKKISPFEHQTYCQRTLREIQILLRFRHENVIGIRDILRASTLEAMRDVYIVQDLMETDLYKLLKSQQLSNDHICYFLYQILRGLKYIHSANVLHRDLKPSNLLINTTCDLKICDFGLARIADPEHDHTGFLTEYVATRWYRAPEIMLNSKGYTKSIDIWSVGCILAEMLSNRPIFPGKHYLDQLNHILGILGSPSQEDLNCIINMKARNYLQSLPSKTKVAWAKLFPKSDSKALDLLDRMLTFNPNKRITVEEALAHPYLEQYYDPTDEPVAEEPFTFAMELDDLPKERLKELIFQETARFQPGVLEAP
Description: (§1) The object of this test example is to determine the inhibition effect of the compound on ERK-1 kinase activity. In vitro ERK-1 kinase analysis was carried out by using LANCE Ultra (Perkin Elmer) method. The reaction (reaction system 10 μL) was conducted by adding 2.5 μL of test compound/DMSO (final 4%, V/V, diluted to 10 concentrations (400 nM to 0.02 nM) using a 1:3 dilution scheme), 5 μL of a mixed solution of ERK1 enzyme (Invitrogen, # PV3311, final concentration: 0.4 nM) and substrate Ulight-MBP peptide (Perkin Elmer, # TRF0109-M, final concentration: 0.5 μM) formulated with a kinase buffer (50 mM Hepes pH 7.4, 10 mM MgCl2, 1 mM EGTA, 0.01% Triton X-100, 2 mM DTT) and 2.5 μL of ATP solution (Invitrogen, # PV3227, final concentration: 38.15 μM) formulated with the same buffer successively to a 384-well plate (Perkin Elmer OPTIPLATE™) and mixing well. The reaction mixture was incubated at room temperature for 60 minutes. The reaction was stopped by adding 1× LANCE Detection buffer (PerkinElmer # CR97-100) diluted with ultra-pure water, mM EDTA (Invitrogen #15575038) and 1 nM Eu-anti-p-MBP (PerkinElmer # TRF0201-M) antibody in 10 μL/well. The plate was incubated at room temperature for 60 minutes. Excitation reading was performed on Synergy H1 Hybird Reader, H1MFD (Biotek) with an excitation wavelength of 320 nm. TR-FRET rate was calculated by dividing the acceptor emission signal (signal value at 665 nM) by the Eu donor emission signal (signal value at 615 nM). The inhibition TR-FRET rate of the well treated by the compound was calculated relative to the Max signal (DMSO control) and Min signal (no enzyme added) control wells on the plate {% inhibition rate=100−[(test compound−Min average)]/(Max average−Min average)×100}. The 10 concentrations of the compound after 4-fold dilution of the reaction system were 100 nM to 0.005 nM. Abs_IC50 value was calculated by using GraphPad prism fits percentage inhibition rate and ten-point concentration data in a 4-parameter non-linear logic formula.

ERK-2 kinase = target: T3, ERK-2 kinase (Homo sapiens, UniProt P28482); assay: Inhibition of ERK-2 kinase activity (LANCE Ultra TR-FRET); assay type: biochemical; conditions: ERK-2 enzyme 0.08 nM, ATP 38.15 μM
T3 construct: purchased Invitrogen PV3313
T3 sequence (P28482 whole entry): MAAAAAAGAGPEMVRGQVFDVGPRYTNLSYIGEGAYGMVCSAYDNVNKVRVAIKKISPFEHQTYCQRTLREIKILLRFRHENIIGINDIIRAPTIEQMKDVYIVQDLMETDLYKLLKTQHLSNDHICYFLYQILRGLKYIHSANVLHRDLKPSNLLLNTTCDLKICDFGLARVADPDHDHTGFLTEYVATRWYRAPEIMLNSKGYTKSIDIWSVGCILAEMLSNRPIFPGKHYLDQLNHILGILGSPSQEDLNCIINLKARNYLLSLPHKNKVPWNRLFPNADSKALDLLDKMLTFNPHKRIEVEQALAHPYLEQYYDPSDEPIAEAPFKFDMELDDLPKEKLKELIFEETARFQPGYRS
Description: as §1, with “ERK-2” for “ERK-1”, “ERK-2” for “ERK1”, “PV3313,” for “PV3311,”, “0.08” for “0.4”, “EGTA” for “EGTA,”, “IX” for “1×”

O=C(Cc1ccccc1)c1nc2cc3c(-c4ccncc4)n[nH]c3cc2[nH]1 [Example 105, 2-phenyl-1-(3-(pyridin-4-yl)-1,7-dihydroimidazo[4,5-f]indazol-6-yl)ethan-1-one]
Inhibition effect on cardiac hERG potassium channel (hERG potassium channel): no inhibition effect
IC50 (hERG potassium channel; CHO-hERG cells, highest test concentration 40 uM, read-out: hERG (inhibition effect on hERG current)): > 40000 nM

Cc1cccc([C@@H](C)NC(=O)c2nc3cc4c(-c5ccncc5)n[nH]c4cc3[nH]2)c1 [Example 21, (R)-3-(pyridin-4-yl)-N-(1-(m-tolyl)ethyl)-1,7-dihydroimidazo[4,5-f]indazole-6-carboxamide]
IC50 [1]: 59.1 nM
IC50 (ERK-1 kinase): 0.3 nM
IC50 (ERK-2 kinase): 0.17 nM

C[C@@H](NC(=O)c1nc2cc3c(-c4ccncc4)n[nH]c3cc2[nH]1)c1cccc(Cl)c1 [Example 22, (R)—N-(1-(3-chlorophenyl)ethyl)-3-(pyridin-4-yl)-1,7-dihydroimidazo[4,5-f]indazole-6-carboxamide]
IC50 [1]: 99.4 nM
IC50 (ERK-1 kinase): 0.26 nM
IC50 (ERK-2 kinase): 0.17 nM

O=C(N[C@H](CO)c1cccc(Cl)c1)c1nc2cc3c(-c4ccncc4)n[nH]c3cc2[nH]1 [Example 28, (S)—N-(1-(3-chlorophenyl)-2-hydroxyethyl)-3-(pyridin-4-yl)-1,7-dihydroimidazo[4,5-f]indazole-6-carboxamide]
IC50 [1]: 202 nM
IC50 (ERK-1 kinase): 0.1 nM
IC50 (ERK-2 kinase): 0.1 nM

CNC[C@@H](NC(=O)c1nc2cc3c(-c4ccncc4)n[nH]c3cc2[nH]1)c1ccccc1 [Example 50, (S)—N-(2-(methylamino)-1-phenylethyl)-3-(pyridin-4-yl)-1,7-dihydroimidazo[4,5-f]indazole-6-carboxamide]
IC50 [1]: 55.5 nM
IC50 (ERK-1 kinase): 0.29 nM
IC50 (ERK-2 kinase): 0.17 nM

C[C@@H](NC(=O)c1nc2cc3c(-c4ccncc4)n[nH]c3cc2[nH]1)c1cccc(Br)c1 [Example 18, (R)—N-(1-(3-bromophenyl)ethyl)-3-(pyridin-4-yl)-1,7-dihydroimidazo[4,5-f]indazole-6-carboxamide]
IC50 [1]: 110 nM
IC50 (ERK-1 kinase): 0.45 nM
IC50 (ERK-2 kinase): 0.51 nM
